Experimental data reported in patent US6818669B2, “Increasing cerebral bioavailability of drugs” (Enos Pharmaceuticals, Inc., priority 1999, dated 2004).

Experiments:
wild type mice = assay: Regional cerebral blood flow (rCBF) by laser-Doppler flowimetry after L-arginine infusion, wild type and simvastatin-treated mice; format: in vivo
From the text: (§1) The number of mice in each group is indicated in parenthesis.

[1] = mouse, in vivo
[2] = Uptake of tritium labeled Dizocilpine in MCA territory after MCA occlusion (Example 6, autoradiography); format: in vivo, mice; conditions: L-arginine 400 mg/kg infusion over 10 min acutely or Simvastatin SC 3 weeks, Example 6 written in present tense
Protocol: 4 groups of mice receive the following treatments by SQ administration for 3 weeks, followed on day 22 by a surgery where an MCA occlusion is induced by an insertion of a modified 8-0 suture. […] Thereafter the mice are sacrificed at 15 and 30 minutes, and the brain tissue is frozen and sectioned and then analyzed by autoradiographic methods to quantitate the amount of radiolabeled compound present within the MCA territory on the side of occlusion.
1) 2 groups of saline SC injection over 3 weeks
a) 1 group after surgery received radio labeled Dizocilpine
2) 2 groups of Simvastain SC injection over 3 weeks

[3] = tested on: mutant mice deficient in endothelial nitric oxide synthase (eNOS null); assay: Regional cerebral blood flow (rCBF) by laser-Doppler flowimetry after L-arginine infusion, eNOS null mice; format: in vivo; conditions: L-arginine 450 mg/kg i.v.
From the text: as §1

[4] = L-arginine infusion in simvastatin-treated mice
[5] = wild type mice, L-arginine 450 mg/kg i.v.

SMILES	elevations in regional cerebral blood flow (RCBF) (wild type mice; L-arginine 300 mg/kg i.v., preliminary experiments n=4, modest and variable) [%]	additional time for which rCBF increases sustained (wild type mice; [4]) [min]	time of maximum rCBF increase (wild type mice; [4]) [min]	maximum rCBF increase over simvastatin baseline (wild type mice; L-arginine infusion in simvastatin-treated mice, at 15-20 min)	increase in blood flow in the 30-40 minute epoch, simvastatin treated compared to non treated control (wild type mice; L-arginine infusion, P<0.05)	time at which increase in RCBF began (wild type mice; [5]) [min]	time of maximum rCBF values (wild type mice; [5]) [min]	time at which RCBF increase achieved statistical significance (wild type mice; wild type mice, L-arginine 450 mg/kg i.v., after infusion) [min]	maximum rCBF increase above baseline (wild type mice; wild type mice, L-arginine 450 mg/kg i.v., parietal cortex, at 20-25 min) [%]	blood pH after infusion (in words) [1]	uptake of Dizocilpine within the underperfused brain [2]	rCBF change during the 40 minute recording period [3]	rCBF response (in words) [3]	increase of baseline rCBF (wild type mice; after chronic daily administration of simvastatin alone) [%]
N=C(N)NCCC[C@H](N)C(=O)O [L-arginine]	10	20	15 to 20	29-31%	larger	5 to 10	20 to 25	10 to 15	26	lower	higher uptake	−4 to +5%	did not increase rCBF	
CCC(C)(C)C(=O)O[C@H]1C[C@@H](C)C=C2C=C[C@H](C)[C@H](CC[C@@H]3C[C@@H](O)CC(=O)O3)[C@H]21 [simvastatin]														25
